One test concerns the target T1, EGFR (Homo sapiens, UniProt P00533).
T1 construct: GST; made in house; host or cells: Sf9 insect cells (baculovirus)
Description: Receptor tyrosine kinase inhibition, 33P-ATP FlashPlate assay (EGFR). It counts as biochemical. As to conditions: recombinant GST fusion kinase, substrate Poly(Glu,Tyr)4:1, Ki from IC50, Km ATP 1.3 µM. The procedure: (§1) The protein kinases were expressed by means of the baculovirus expression system in Sf9 insect cells as human recombinant GST fusion proteins and purified by affinity chromatography using GSH-agarose. The kinase identity was confirmed by mass spectrometry using LC-ESI-MS/MS technique.
(§2) The measuring of protein kinase activity was performed in 96-well FlashPlates^TM from Perkin Elmer in a 50 µL reaction volume. The reaction mixture consisted of 20 µL of assay buffer solution, 5 µL of ATP solution in water, 5 µL of used test compound in a 10% DMSO solution and finally a premixture of each 10 µL of used substrate and enzyme solutions. The assay buffer solution contained 70 mM of HEPES-NAOH pH 7.5, each 3 mM of magnesium chloride and manganese(II) chloride, 3 µM of sodium orthovanadate, 1.2 mM of DTT, 50 µg/mL of PEG20000 and finally 15 µM of [γ-^33P]-ATP making approximately 7 × 10^5 cpm per well.
(§3) The final kinase concentration has been 10 ng/50 µL for EGFR and IGF-1R. The used substrate was Poly(Glu,Tyr)4:1 in a concentration of 125 ng/50 µL.
(§4) The reaction mixtures were incubated at 30 °C for 60 min. The reaction was stopped with 50 µL of a 2% (v/v) solution of phosphoric acid. Then, the plates were aspirated and washed twice with 200 µL of water or 0.9% solution of sodium chloride. The incorporation of ^33Pi was determined with a microplate scintillation counter. Ten different inhibitor concentrations were measured in a range of 3 nM to 100 µM. The residual activity (%) and the IC50 values were finally calculated. From the IC50 values, the affinity constants Ki were determined using the equation: IC50 = 1/2 [Etotal] + Ki× (1 + [S]/Km) following a competitive inhibitor binding mode[18]. The used Km values for ATP have been measured with 1.3 µM for EGFR and with 2.52 µM for IGF-1R (Table 1).

The target of test [1] is T2, IGF-1R (Homo sapiens, UniProt P08069).
T2 construct: GST; made in house; host or cells: Sf9 insect cells (baculovirus)
T2 sequence (P08069 31-1367): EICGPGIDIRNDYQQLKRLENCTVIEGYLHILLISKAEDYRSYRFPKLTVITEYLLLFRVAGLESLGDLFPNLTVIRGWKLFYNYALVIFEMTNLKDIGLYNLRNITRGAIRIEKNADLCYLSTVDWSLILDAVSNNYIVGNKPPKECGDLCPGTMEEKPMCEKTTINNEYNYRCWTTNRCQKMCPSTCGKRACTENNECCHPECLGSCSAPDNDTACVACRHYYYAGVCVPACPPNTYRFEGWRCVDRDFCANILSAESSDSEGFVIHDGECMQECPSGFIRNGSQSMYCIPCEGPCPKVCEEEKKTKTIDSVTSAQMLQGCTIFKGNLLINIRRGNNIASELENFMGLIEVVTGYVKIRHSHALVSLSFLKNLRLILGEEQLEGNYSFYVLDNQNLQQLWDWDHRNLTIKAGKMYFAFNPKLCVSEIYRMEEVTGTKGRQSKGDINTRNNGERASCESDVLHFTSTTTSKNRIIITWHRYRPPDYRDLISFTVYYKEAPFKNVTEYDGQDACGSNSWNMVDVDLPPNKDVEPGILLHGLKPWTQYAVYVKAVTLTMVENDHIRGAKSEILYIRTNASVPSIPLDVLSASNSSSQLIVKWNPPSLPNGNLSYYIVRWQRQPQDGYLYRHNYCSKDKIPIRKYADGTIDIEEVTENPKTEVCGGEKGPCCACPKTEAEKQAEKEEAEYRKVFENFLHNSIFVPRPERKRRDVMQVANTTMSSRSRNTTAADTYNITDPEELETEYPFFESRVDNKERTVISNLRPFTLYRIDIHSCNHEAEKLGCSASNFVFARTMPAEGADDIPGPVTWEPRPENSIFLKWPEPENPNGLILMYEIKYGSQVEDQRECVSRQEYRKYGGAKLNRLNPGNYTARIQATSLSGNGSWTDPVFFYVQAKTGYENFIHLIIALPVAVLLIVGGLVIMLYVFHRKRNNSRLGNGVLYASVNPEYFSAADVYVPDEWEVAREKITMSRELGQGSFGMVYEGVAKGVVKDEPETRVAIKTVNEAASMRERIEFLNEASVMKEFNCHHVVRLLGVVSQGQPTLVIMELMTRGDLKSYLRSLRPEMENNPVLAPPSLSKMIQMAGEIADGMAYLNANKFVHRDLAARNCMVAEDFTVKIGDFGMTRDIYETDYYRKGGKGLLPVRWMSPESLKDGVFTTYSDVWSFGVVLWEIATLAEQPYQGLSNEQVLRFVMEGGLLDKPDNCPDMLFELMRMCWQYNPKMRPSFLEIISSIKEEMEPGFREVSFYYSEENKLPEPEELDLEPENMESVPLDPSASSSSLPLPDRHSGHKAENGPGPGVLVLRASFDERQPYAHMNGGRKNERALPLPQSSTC
Description: Receptor tyrosine kinase inhibition, 33P-ATP FlashPlate assay (IGF-1R). The format is biochemical. Particulars: for Ki: recombinant GST fusion kinase, substrate Poly(Glu,Tyr)4:1, Ki from IC50, Km ATP 2.52 µM. The procedure:
as §1, §2, §3, §4

Test [2] concerns IGF-1R. The arrangement: method as in PMID 23639757. Particulars: cited from earlier work.

T1 sequence (P00533 25-1210): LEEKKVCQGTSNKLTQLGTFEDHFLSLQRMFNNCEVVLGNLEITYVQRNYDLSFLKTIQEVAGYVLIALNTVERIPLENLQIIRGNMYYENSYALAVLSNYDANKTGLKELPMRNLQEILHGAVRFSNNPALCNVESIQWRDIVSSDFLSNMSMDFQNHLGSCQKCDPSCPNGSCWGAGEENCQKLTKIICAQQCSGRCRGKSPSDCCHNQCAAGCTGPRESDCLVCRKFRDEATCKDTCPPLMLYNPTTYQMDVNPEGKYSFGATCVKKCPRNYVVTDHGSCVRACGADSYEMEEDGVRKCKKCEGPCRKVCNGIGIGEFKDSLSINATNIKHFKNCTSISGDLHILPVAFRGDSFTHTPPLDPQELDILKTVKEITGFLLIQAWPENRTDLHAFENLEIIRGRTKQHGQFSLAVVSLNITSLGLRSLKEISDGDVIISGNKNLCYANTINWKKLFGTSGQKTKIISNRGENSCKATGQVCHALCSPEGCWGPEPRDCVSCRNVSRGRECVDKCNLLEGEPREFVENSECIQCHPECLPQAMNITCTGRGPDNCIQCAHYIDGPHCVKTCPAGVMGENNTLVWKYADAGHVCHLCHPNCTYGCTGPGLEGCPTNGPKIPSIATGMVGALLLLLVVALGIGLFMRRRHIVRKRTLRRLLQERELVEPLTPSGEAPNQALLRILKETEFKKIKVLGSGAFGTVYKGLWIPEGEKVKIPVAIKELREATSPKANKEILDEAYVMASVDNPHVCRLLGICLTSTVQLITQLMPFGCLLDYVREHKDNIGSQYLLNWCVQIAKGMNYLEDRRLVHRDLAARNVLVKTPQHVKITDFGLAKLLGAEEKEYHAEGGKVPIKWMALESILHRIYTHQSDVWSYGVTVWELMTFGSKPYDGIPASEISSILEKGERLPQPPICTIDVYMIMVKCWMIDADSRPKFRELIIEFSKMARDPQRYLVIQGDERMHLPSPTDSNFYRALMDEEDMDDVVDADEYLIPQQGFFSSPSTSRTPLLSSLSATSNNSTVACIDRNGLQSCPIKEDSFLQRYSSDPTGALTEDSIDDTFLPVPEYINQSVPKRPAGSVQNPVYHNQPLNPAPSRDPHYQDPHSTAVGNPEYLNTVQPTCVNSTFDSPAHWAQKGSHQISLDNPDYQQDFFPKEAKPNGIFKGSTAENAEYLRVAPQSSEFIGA

Consider `Cc1ccc(CNc2ccnc3[nH]c4ccc(C#N)cc4c23)cc1` [Compound 6c, 4–(4-Methylbenzyl)amino-9H-pyrido[2,3-b]indole-6-carbonitrile], for which the values for the Ki on EGFR and at IGF-1R [1] were 160 ± 15 nM and 390 ± 16 nM, respectively.

With `COc1cccc(CNc2ccnc3[nH]c4ccc(C#N)cc4c23)c1` [Compound 6a, 4–(3-Methoxybenzyl)amino-9H-pyrido[2,3-b]indole-6-carbonitrile], the figures for the Ki on EGFR and on IGF-1R [1] were 72 ± 17 nM and 288 ± 26 nM, respectively. For the same molecule, the “affinity towards IGF-1R relative to corresponding 6-bromo compound 5a” value on IGF-1R [1] (fold comparison of Ki with 5a) is given as “more than thirtyfold higher”.

Turning to `Clc1cccc(CNc2ccnc3[nH]c4ccc(Br)cc4c23)c1` [Compound 5b, N^4–(3-Chlorobenzyl)-6-bromo-9H-pyrido[2,3-b]indole-4-amine], the Ki (usually the equilibrium dissociation constant of an inhibitor or competing ligand from its target) on EGFR was found to be 361 ± 35 nM; at IGF-1R [1], 3470 ± 71 nM.

In the case of `C#Cc1cccc(Nc2ncnc3cc(OCCOC)c(OCCOC)cc23)c1` [erlotinib], the “activity toward IGF-1R (erlotinib)” value with IGF-1R [2] is listed as “no activity”.

Consider `Cc1ccc(CNc2ccnc3[nH]c4ccc(Br)cc4c23)cc1` [Compound 5h, N^4–(4-Methylbenzyl)-6-bromo-9H-pyrido[2,3-b]indole-4-amine], for which the results for the Ki on EGFR and on IGF-1R [1] were 279 ± 91 nM and 697 ± 15 nM, respectively.

For the molecule `COc1ccc(CNc2ccnc3[nH]c4ccc(C#N)cc4c23)cc1` [Compound 6b, 4–(4-Methoxybenzyl)amino-9H-pyrido[2,3-b]indole-6-carbonitrile], the Ki on EGFR turned out to be 158 ± 26 nM; on IGF-1R [1] it was 269 ± 22 nM.

On to `Nc1cccc(CNc2ccnc3[nH]c4ccc(Br)cc4c23)c1` [Compound 5d, N^4–(3-Aminobenzyl)-6-bromo-9H-pyrido[2,3-b]indole-4-amine], for which the Ki on EGFR is 101 ± 11 nM; on IGF-1R [1], 537 ± 22 nM.

Turning to `Clc1ccc(CNc2ccnc3[nH]c4ccc(Br)cc4c23)cc1` [Compound 5f, N^4–(4-Chlorobenzyl)-6-bromo-9H-pyrido[2,3-b]indole-4-amine], the “Ki values EGFR” value at EGFR was “lost”. The inhibition constant (Ki) at IGF-1R [1] was found to be 2290 ± 43 nM.

With `COc1ccc(CNc2ccnc3[nH]c4ccc(Br)cc4c23)cc1` [Compound 5e, N^4–(4-Methoxybenzyl)-6-bromo-9H-pyrido[2,3-b]indole-4-amine], the Ki on EGFR is 1170 ± 57 nM; on IGF-1R [1], 2230 ± 22 nM.

As to `COc1cccc(CNc2ccnc3[nH]c4ccc(Br)cc4c23)c1` [Compound 5a, N^4–(3-Methoxybenzyl)-6-bromo-9H-pyrido[2,3-b]indole-4-amine], the Ki is 344 ± 24 nM on EGFR and 9840 ± 238 nM at IGF-1R [1].

Consider `COc1cccc(CNc2ccnc3[nH]c4ccc(C(=O)O)cc4c23)c1` [Compound 7], for which the Ki amounted to 140 ± 28 nM on EGFR and 2360 ± 132 nM at IGF-1R [1]. Besides, the “affinity towards IGF-1R relative to corresponding 6-cyano compound 6a” value at IGF-1R [1] (fold comparison of Ki with 6a) was “almost tenfold lower”.

Take `Brc1cccc(CNc2ccnc3[nH]c4ccc(Br)cc4c23)c1` [Compound 5c, N^4–(3-Bromobenzyl)-6-bromo-9H-pyrido[2,3-b]indole-4-amine]: the Ki on EGFR stood at 255 ± 18 nM; on IGF-1R [1], 2960 ± 37 nM.

For the molecule `Brc1ccc(CNc2ccnc3[nH]c4ccc(Br)cc4c23)cc1` [Compound 5g, N^4–(4-Bromobenzyl)-6-bromo-9H-pyrido[2,3-b]indole-4-amine], the Ki on EGFR came to 448 ± 72 nM; at IGF-1R [1], 884 ± 25 nM.

The record behind these values is publication PMC6009933, “Discovery of novel dual inhibitors of receptor tyrosine kinases EGFR and IGF-1R” (Journal of Enzyme Inhibition and Medicinal Chemistry, 2017).
